Three molecules from US20080161254A1, “HCV INHIBITORS” (ViroBay, Inc., priority 2007, published 2008) can be followed below.

Bounds are passed on as bounds.

The subject of the test is HCV replication (HCV replicon-containing Huh7/Clone A cells). The test is described as follows: HCV replicon assay. The conditions noted are these: Hepatitis C virus, Huh-7, 48 hours incubation, HCV replicon RNA by RT-qPCR normalized to total RNA, read-out: IC50, inhibition of HCV replication. The test is classed as cell-based. An excerpt:
The HCV replicon assay is a cell-culture system that mimics in vivo HCV replication and provides a system to study HCV replication in vitro. It was created by transfecting cloned viral RNA derived from a consensus HCV genomic sequence into human Huh7 hepatoma cells that are semi-permissive for viral RNA production (Lohmann V., Korner F., Koch J.-0., Herian U., Theilmann L. and Bartenschlager R. (1999). Replication of subgenomic Hepatitis C virus RNAs in a hepatoma cell line. Science 285, 110-113 and Blight K. J., Kolykhalov A. A. and Rice C. M. (2000). Efficient initiation of HCV RNA Replication in cell culture. Science 290, […]). These transfected cell lines contain a subgenomic HCV RNA genome that includes (1) the HCV 5′NTR fused to 12 amino acids of the capsid coding region, (2) the neomycin phosphotransferase gene (Neo) as a selectable marker, (3) the internal ribosome entry site (IRES) from encephalomyocarditis virus (EMCV) that directs translation of HCV non-structural proteins (variously NS2 or NS3 to NS5B), and (4) the 3′ NTR. Replicon-containing cells autonomously and persistently replicate HCV RNA that can be measured quantitatively by real-time qPCR. Therefore, the replicon system facilitates quantitative assessment of anti-viral activity by monitoring changes in HCV RNA replication in a cell-based assay.
HCV replicon-containing cells (Huh7/Clone A) were routinely maintained in Clone A growth medium (DMEM medium [Invitrogen], supplemented with 10% Fetal Bovine Serum, 1% Non Essential Amino Acids and 1 g/L G418). […]
Total RNA eluted in 130 μl of RNase-free dH2O was quantitated by the RiboGreen Assay according to the supplier's protocol (Molecular Probe). […] RNA samples in the black microplate were mixed with 95 μl of diluted RiboGreen reagent (1:250 dilution in TE buffer) and sample fluorescence was measured using a fluorescence microplate reader at standard fluorescein wavelengths (excitation ˜480 nm, emission ˜520 nm). […]
TaqMan quantitative PCR(RT-qPCR) was used to quantitate the amount of HCV replicon RNA in each sample. […]
(In general: In antiviral work, replicon cells carry a viral genome segment that copies itself.)
For orientation: IC50 means the midpoint of a concentration-inhibition curve. As for `CCC[C@H](NC(=O)[C@@H]1C[C@@H](Oc2nc(-c3ccccn3)nc3sccc23)CN1C(=O)[C@@H](NC(=O)NC(C)(C)C)C(C)(C)C)C(=O)C(=O)NC1CC1` [Example 6, (2S,4R)-1-((S)-2-(3-tert-butylureido)-3,3-dimethylbutanoyl)-N—((S)-1-(cyclopropylamino)-1,2-dioxohexan-3-yl)-4-(2-(pyridin-2-yl)thieno[2,3-d]pyrimidin-4-yloxy)pyrrolidine-2-carboxamide], the IC50 is < 1000 nM.

In the case of `CCC[C@H](NC(=O)[C@@H]1C[C@@H](Oc2nc(-c3ccccn3)nc3ccsc23)CN1C(=O)[C@@H](NC(=O)NC(C)(C)C)C(C)(C)C)C(=O)C(=O)NC1CC1` [Example 7, (2S,4R)-1-((S)-2-(3-tert-butylureido)-3,3-dimethylbutanoyl)-N—((S)-1-(cyclopropylamino)-1,2-dioxohexan-3-yl)-4-(2-(pyridin-2-yl)thieno[3,2-d]pyrimidin-4-yloxy)pyrrolidine-2-carboxamide], the IC50 was < 1000 nM.

On to `CCC[C@H](NC(=O)[C@@H]1C[C@@H](Oc2cc(-c3ccccn3)nc3ccsc23)CN1C(=O)[C@@H](NC(=O)NC(C)(C)C)C(C)(C)C)C(=O)C(=O)NC1CC1` [Example 5, (2S,4R)-1-((S)-2-(3-tert-butylureido)-3,3-dimethylbutanoyl)-N—((S)-1-(cyclopropylamino)-1,2-dioxohexan-3-yl)-4-(5-(pyridin-2-yl)thieno[3,2-b]pyridin-7-yloxy)pyrrolidine-2-carboxamide], for which the IC50 is < 1000 nM.
